Experimental data: US4950647A, “T cell immunopotentiator” (Nucleic Acid Research Institute, priority 1988, dated 1990)

Assays:
B cells = settings: predominantly a subset of mature B lymphocytes; cited from earlier work
[1] = system: human lymphocytes (peripheral blood mononuclear cells); settings: known; cited from earlier work
[2] = Immune system enhancement / suppression; settings: β analog: at the same concentrations at which the compound is immunostimulatory
macrophages and NK cells = settings: cited from earlier work

SMILES	stimulation of B cell proliferation (B cells)	activation of lymphocytes to proliferate [1]	immunosuppressive / immune enhancing effect [2]	activation of macrophages and NK cells (macrophages and NK cells)
Nc1nc2c(nc(S)n2[C@@H]2O[C@H](CO)[C@@H](O)[C@H]2O)c(=O)[nH]1 [8-mercaptoguanosine]	stimulate proliferation of B cells	activate lymphocytes to proliferate	–	–
Nc1cc2c(ncn2[C@H]2C[C@H](O)[C@@H](CO)O2)c(=O)[nH]1 [2'-deoxy-3-deazaguanosine]	–	–	immunosuppressive	–
Nc1nc2c(nc(Br)n2[C@@H]2O[C@H](CO)[C@@H](O)[C@H]2O)c(=O)[nH]1 [8-bromoguanosine]	stimulate proliferation of B cells	activate lymphocytes to proliferate	–	activate macrophages and NK cells
Nc1nc2c(ncn2[C@H]2C[C@H](O)[C@@H](CO)O2)c(=O)[nH]1 [2'-deoxyguanosine]	–	–	not immune system enhancers	–
Nc1cc2c(ncn2[C@@H]2O[C@H](CO)[C@@H](O)[C@H]2O)c(=O)[nH]1 [3-deazaguanosine]	–	–	not immune system enhancers	–
